Source: PubChem BioAssay AID1919003 (Molecular Pharmacology Branch, DTP, NCI, 2023)

Test system: 786-0 complex spheroids with HUVEC/MSC, growth % test/control
Assay: Anticancer human tumor 786-0 cell line growth inhibition [AhR];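 also: compound exposure lasted seven days before the read-out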
Details: for IC50: curve of first compound; for viability, T/C: stronger effect = lower value
In short: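 Complex tumor spheroids co-cultured with HUVEC and human MSC stroma; AhR antagonists tested in combination with standard-of-care and investigational agents. Top concentration at or near clinical Cmax (else 10 microM), half-log dilutions; growth expressed as percent test/control.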

[1] = second compound 0.1 µM, first compound 0.0316 µM
[2] = second compound 0.1 µM, first compound 0.1 µM
[3] = second compound 0.1 µM, first compound 0.316 µM
[4] = second compound 0.1 µM, first compound 1 µM
[5] = second compound 0.1 µM, first compound 3.16 µM
[6] = second compound 0.1 µM, first compound 10 µM
[7] = second compound 0.316 µM, first compound 0.0316 µM
[8] = second compound 0.316 µM, first compound 0.1 µM
[9] = second compound 0.316 µM, first compound 0.316 µM
[10] = second compound 0.316 µM, first compound 1 µM
[11] = second compound 0.316 µM, first compound 3.16 µM
[12] = second compound 0.316 µM, first compound 10 µM
[13] = second compound 1 µM, first compound 0.0316 µM
[14] = second compound 1 µM, first compound 0.1 µM
[15] = second compound 1 µM, first compound 0.316 µM
[16] = second compound 1 µM, first compound 1 µM
[17] = second compound 1 µM, first compound 3.16 µM
[18] = second compound 1 µM, first compound 10 µM
[19] = second compound 3.16 µM, first compound 0.0316 µM
[20] = second compound 3.16 µM, first compound 0.1 µM
[21] = second compound 3.16 µM, first compound 0.316 µM
[22] = second compound 3.16 µM, first compound 1 µM
[23] = second compound 3.16 µM, first compound 3.16 µM
[24] = second compound 3.16 µM, first compound 10 µM
[25] = second compound 10 µM, first compound 0.0316 µM
[26] = second compound 10 µM, first compound 0.1 µM
[27] = second compound 10 µM, first compound 0.316 µM
[28] = second compound 10 µM, first compound 1 µM
[29] = second compound 10 µM, first compound 3.16 µM
[30] = second compound 10 µM, first compound 10 µM

Compound `CC(C)CC(NC(=O)C(Cc1ccccc1)NC(=O)c1cnccn1)B(O)O` (stereo not given) + CC(CO)NC(=O)c1cc(-c2ccc(Cl)cc2)nn(-c2cnn(C)c2)c1=O has an IC50 (second compound 0.1 µM) of 0.00771 µM, an IC50 (second compound 0.316 µM) of 0.00836 µM and an IC50 (second compound 1 µM) of 0.00849 µM. The IC50 (second compound 3.16 µM) was 0.00794 µM, the IC50 (second compound 10 µM) was 0.00788 µM and the viability, T/C (second compound 0.1 µM, first compound 0.000949 µM) was 108%. The viability, T/C (second compound 0.1 µM, first compound 0.003 µM) was 103%, the viability, T/C (second compound 0.1 µM, first compound 0.00949 µM) was 38.4% and the viability, T/C (second compound 0.1 µM, first compound 0.03 µM) was 0.34%. The viability, T/C (second compound 0.1 µM, first compound 0.0949 µM) was 0.27%, the viability, T/C (second compound 0.1 µM, first compound 0.3 µM) was 0.18% and the viability, T/C (second compound 0.316 µM, first compound 0.000949 µM) was 114%. It also gave a viability, T/C (second compound 0.316 µM, first compound 0.003 µM) of 117%, a viability, T/C (second compound 0.316 µM, first compound 0.00949 µM) of 41.9% and a viability, T/C (second compound 0.316 µM, first compound 0.03 µM) of 0.39%. For the same compound, the viability, T/C (second compound 0.316 µM, first compound 0.0949 µM) was 0.19%, the viability, T/C (second compound 0.316 µM, first compound 0.3 µM) was 0.19% and the viability, T/C (second compound 1 µM, first compound 0.000949 µM) was 112%. It also gave a viability, T/C (second compound 1 µM, first compound 0.003 µM) of 112%, a viability, T/C (second compound 1 µM, first compound 0.00949 µM) of 43.3% and a viability, T/C (second compound 1 µM, first compound 0.03 µM) of 0.56%. The viability, T/C (second compound 1 µM, first compound 0.0949 µM) was 0.17%, the viability, T/C (second compound 1 µM, first compound 0.3 µM) was 0.33% and the viability, T/C (second compound 3.16 µM, first compound 0.000949 µM) was 117%. For the same compound, the viability, T/C (second compound 3.16 µM, first compound 0.003 µM) was 118%, the viability, T/C (second compound 3.16 µM, first compound 0.00949 µM) was 37.6% and the viability, T/C (second compound 3.16 µM, first compound 0.03 µM) was 1.26%. For the same compound, the viability, T/C (second compound 3.16 µM, first compound 0.0949 µM) was 0.23%, the viability, T/C (second compound 3.16 µM, first compound 0.3 µM) was 0.25% and the viability, T/C (second compound 10 µM, first compound 0.000949 µM) was 120%. The viability, T/C (second compound 10 µM, first compound 0.003 µM) was 127%, the viability, T/C (second compound 10 µM, first compound 0.00949 µM) was 35.9% and the viability, T/C (second compound 10 µM, first compound 0.03 µM) was 1.88%. For the same compound, the viability, T/C (second compound 10 µM, first compound 0.0949 µM) was 0.9% and the viability, T/C (second compound 10 µM, first compound 0.3 µM) was 0.37%.

With `COc1cc(Nc2ncc3c(n2)-c2ccc(Cl)cc2C(c2c(F)cccc2OC)=NC3)ccc1C(=O)O` + CC(CO)NC(=O)c1cc(-c2ccc(Cl)cc2)nn(-c2cnn(C)c2)c1=O the IC50 (second compound 0.1 µM) was 2.79 µM, the IC50 (second compound 0.316 µM) was 2.6 µM and the IC50 (second compound 1 µM) was 2.55 µM. It also gave an IC50 (second compound 3.16 µM) of 2.54 µM, an IC50 (second compound 10 µM) of 2.82 µM and a viability, T/C [1] of 101%. It also gave a viability, T/C [2] of 96.8%, a viability, T/C [3] of 99.9% and a viability, T/C [4] of 82%. For the same compound, the viability, T/C [5] was 46.4%, the viability, T/C [6] was 23.9% and the viability, T/C [7] was 106%. For the same compound, the viability, T/C [8] was 100%, the viability, T/C [9] was 107% and the viability, T/C [10] was 84.7%. The viability, T/C [11] was 43.2%, the viability, T/C [12] was 19.8% and the viability, T/C [13] was 96.8%. For the same compound, the viability, T/C [14] was 103%, the viability, T/C [15] was 108% and the viability, T/C [16] was 80.2%. For the same compound, the viability, T/C [17] was 44%, the viability, T/C [18] was 20.3% and the viability, T/C [19] was 107%. It also gave a viability, T/C [20] of 93.2%, a viability, T/C [21] of 104% and a viability, T/C [22] of 87.9%. The viability, T/C [23] was 41.1%, the viability, T/C [24] was 19.9% and the viability, T/C [25] was 92.3%. The viability, T/C [26] was 86.7%, the viability, T/C [27] was 101% and the viability, T/C [28] was 85%. The viability, T/C [29] was 46.2% and the viability, T/C [30] was 19.5%.

For `Nc1ccccc1NC(=O)c1ccc(CNC(=O)OCc2cccnc2)cc1` + CC(CO)NC(=O)c1cc(-c2ccc(Cl)cc2)nn(-c2cnn(C)c2)c1=O, the IC50 (second compound 0.1 µM) was 5.28 µM, the IC50 (second compound 0.316 µM) was 5.23 µM and the IC50 (second compound 1 µM) was 4.78 µM. The IC50 (second compound 3.16 µM) was 4.6 µM, the IC50 (second compound 10 µM) was 4.08 µM and the viability, T/C [1] was 107%. For the same compound, the viability, T/C [2] was 104%, the viability, T/C [3] was 110% and the viability, T/C [4] was 104%. It also gave a viability, T/C [5] of 73.8%, a viability, T/C [6] of 20.3% and a viability, T/C [7] of 114%. The viability, T/C [8] was 99.3%, the viability, T/C [9] was 113% and the viability, T/C [10] was 101%. The viability, T/C [11] was 76.7%, the viability, T/C [12] was 15.9% and the viability, T/C [13] was 101%. For the same compound, the viability, T/C [14] was 112%, the viability, T/C [15] was 98.1% and the viability, T/C [16] was 104%. For the same compound, the viability, T/C [17] was 68.5%, the viability, T/C [18] was 16.9% and the viability, T/C [19] was 111%. For the same compound, the viability, T/C [20] was 110%, the viability, T/C [21] was 110% and the viability, T/C [22] was 92%. For the same compound, the viability, T/C [23] was 65.7%, the viability, T/C [24] was 18.8% and the viability, T/C [25] was 113%. It also gave a viability, T/C [26] of 114%, a viability, T/C [27] of 102% and a viability, T/C [28] of 96.4%. For the same compound, the viability, T/C [29] was 58% and the viability, T/C [30] was 18.8%.

Compound `O=C(C=Cc1cccc(S(=O)(=O)Nc2ccccc2)c1)NO` + CC(CO)NC(=O)c1cc(-c2ccc(Cl)cc2)nn(-c2cnn(C)c2)c1=O has an IC50 (second compound 0.1 µM) of 6.02 µM, an IC50 (second compound 0.316 µM) of 5.21 µM and an IC50 (second compound 1 µM) of 5.51 µM. For the same compound, the IC50 (second compound 3.16 µM) was 4.85 µM, the IC50 (second compound 10 µM) was 4.71 µM and the viability, T/C [1] was 102%. It also gave a viability, T/C [2] of 106%, a viability, T/C [3] of 97.2% and a viability, T/C [4] of 107%. It also gave a viability, T/C [5] of 93.8%, a viability, T/C [6] of 15.2% and a viability, T/C [7] of 104%. For the same compound, the viability, T/C [8] was 101%, the viability, T/C [9] was 111% and the viability, T/C [10] was 110%. The viability, T/C [11] was 79%, the viability, T/C [12] was 12% and the viability, T/C [13] was 100%. The viability, T/C [14] was 104%, the viability, T/C [15] was 104% and the viability, T/C [16] was 105%. The viability, T/C [17] was 84.7%, the viability, T/C [18] was 12.5% and the viability, T/C [19] was 103%. For the same compound, the viability, T/C [20] was 102%, the viability, T/C [21] was 103% and the viability, T/C [22] was 101%. The viability, T/C [23] was 73.6%, the viability, T/C [24] was 10% and the viability, T/C [25] was 109%. It also gave a viability, T/C [26] of 108%, a viability, T/C [27] of 106% and a viability, T/C [28] of 94.8%. For the same compound, the viability, T/C [29] was 72.6% and the viability, T/C [30] was 8.46%.
